{"source": "the supplement of paper PMC10307832", "assay_in_all_cases": "relative viability (nuclei count vs DMSO), 5 days (fraction); higher = more cells survive", "key": {"LOU-NH91": {"system": "LOU-NH91", "summary_of_the_method": "(§1)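 Medians of duplicate plates are given as relative viability. That measure is the nuclei count in treated wells divided by the count in vehicle wells. Counts were taken on 4× images of lung cancer cell lines in 1536-well plates, 5 days after pin-tool dosing the day after seeding with one drug alone or a fixed anchor-drug dose plus five library-drug doses (not always all listed) in √10 steps.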"}, "NCI-H3122": {"system": "NCI-H3122", "summary_of_the_method": "as §1"}, "NCI-H2085": {"system": "NCI-H2085", "summary_of_the_method": "as §1"}, "HCC-366": {"system": "HCC-366", "summary_of_the_method": "as §1"}, "NCI-H1437": {"system": "NCI-H1437", "summary_of_the_method": "as §1"}, "LXF-289": {"system": "LXF-289", "summary_of_the_method": "as §1"}, "NCI-H1623": {"system": "NCI-H1623", "summary_of_the_method": "as §1"}, "NCI-H1299": {"system": "NCI-H1299", "summary_of_the_method": "as §1"}, "NCI-H1703": {"system": "NCI-H1703", "summary_of_the_method": "as §1"}, "NCI-H1648": {"system": "NCI-H1648", "summary_of_the_method": "as §1"}, "IA-LM": {"system": "IA-LM", "summary_of_the_method": "as §1"}, "EBC-1": {"system": "EBC-1", "summary_of_the_method": "as §1"}, "A549": {"system": "A549", "summary_of_the_method": "as §1"}, "HCC-44": {"system": "HCC-44", "summary_of_the_method": "as §1"}, "Calu-6": {"system": "Calu-6", "summary_of_the_method": "as §1"}}, "data": [{"smiles": "Cc1sc2c(c1C)C(c1ccc(Cl)cc1)=N[C@@H](CC(=O)OC(C)(C)C)c1nnc(C)n1-2", "note": "[JQ1] + Cc1nc(Nc2ncc(C(=O)Nc3c(C)cccc3Cl)s2)cc(N2CCN(CCO)CC2)n1 [Dasatinib] (partner 0.075 µM)", "values": [{"measurement": "relative viability", "setting": "LOU-NH91; first compound 0.04 µM", "result": 0.549}, {"measurement": "relative viability", "setting": "LOU-NH91; first compound 0.1265 µM", "result": 0.463}, {"measurement": "relative viability", "setting": "LOU-NH91; first compound 0.4 µM", "result": 0.324}, {"measurement": "relative viability", "setting": "LOU-NH91; first compound 1.265 µM", "result": 0.326}, {"measurement": "relative viability", "setting": "LOU-NH91; first compound 4 µM", "result": 0.354}, {"measurement": "relative viability", "setting": "NCI-H3122; first compound 0.04 µM", "result": 0.777}, {"measurement": "relative viability", "setting": "NCI-H3122; first compound 0.1265 µM", "result": 0.551}, {"measurement": "relative viability", "setting": "NCI-H3122; first compound 0.4 µM", "result": 0.582}, {"measurement": "relative viability", "setting": "NCI-H3122; first compound 1.265 µM", "result": 0.463}, {"measurement": "relative viability", "setting": "NCI-H3122; first compound 4 µM", "result": 0.209}, {"measurement": "relative viability", "setting": "NCI-H2085; first compound 0.04 µM", "result": 0.257}, {"measurement": "relative viability", "setting": "NCI-H2085; first compound 0.1265 µM", "result": 0.275}, {"measurement": "relative viability", "setting": "NCI-H2085; first compound 0.4 µM", "result": 0.189}, {"measurement": "relative viability", "setting": "NCI-H2085; first compound 1.265 µM", "result": 0.223}, {"measurement": "relative viability", "setting": "NCI-H2085; first compound 4 µM", "result": 0.176}, {"measurement": "relative viability", "setting": "HCC-366; first compound 0.04 µM", "result": 0.667}, {"measurement": "relative viability", "setting": "HCC-366; first compound 0.4 µM", "result": 0.599}, {"measurement": "relative viability", "setting": "HCC-366; first compound 1.265 µM", "result": 0.368}, {"measurement": "relative viability", "setting": "HCC-366; first compound 4 µM", "result": 0.324}, {"measurement": "relative viability", "setting": "NCI-H1437; first compound 0.04 µM", "result": 0.394}, {"measurement": "relative viability", "setting": "NCI-H1437; first compound 0.1265 µM", "result": 0.365}, {"measurement": "relative viability", "setting": "NCI-H1437; first compound 0.4 µM", "result": 0.263}, {"measurement": "relative viability", "setting": "NCI-H1437; first compound 1.265 µM", "result": 0.217}, {"measurement": "relative viability", "setting": "NCI-H1437; first compound 4 µM", "result": 0.244}, {"measurement": "relative viability", "setting": "LXF-289; first compound 0.04 µM", "result": 0.283}, {"measurement": "relative viability", "setting": "LXF-289; first compound 0.1265 µM", "result": 0.117}, {"measurement": "relative viability", "setting": "LXF-289; first compound 0.4 µM", "result": 0.212}, {"measurement": "relative viability", "setting": "LXF-289; first compound 1.265 µM", "result": 0.156}, {"measurement": "relative viability", "setting": "LXF-289; first compound 4 µM", "result": 0.152}, {"measurement": "relative viability", "setting": "NCI-H1623; first compound 0.04 µM", "result": 0.634}, {"measurement": "relative viability", "setting": "NCI-H1623; first compound 0.1265 µM", "result": 0.483}, {"measurement": "relative viability", "setting": "NCI-H1623; first compound 0.4 µM", "result": 0.466}, {"measurement": "relative viability", "setting": "NCI-H1623; first compound 1.265 µM", "result": 0.357}, {"measurement": "relative viability", "setting": "NCI-H1623; first compound 4 µM", "result": 0.32}]}, {"smiles": "Cc1sc2c(c1C)C(c1ccc(Cl)cc1)=N[C@@H](CC(=O)OC(C)(C)C)c1nnc(C)n1-2", "note": "[JQ1] + O=C(c1cc(Cc2n[nH]c(=O)c3ccccc23)ccc1F)N1CCN(C(=O)C2CC2)CC1 [Olaparib] (partner 8 µM)", "values": [{"measurement": "relative viability", "setting": "LOU-NH91; first compound 0.04 µM", "result": 0.911}, {"measurement": "relative viability", "setting": "LOU-NH91; first compound 0.1265 µM", "result": 0.769}, {"measurement": "relative viability", "setting": "LOU-NH91; first compound 0.4 µM", "result": 0.647}, {"measurement": "relative viability", "setting": "LOU-NH91; first compound 1.265 µM", "result": 0.488}, {"measurement": "relative viability", "setting": "LOU-NH91; first compound 4 µM", "result": 0.421}, {"measurement": "relative viability", "setting": "NCI-H3122; first compound 0.04 µM", "result": 0.558}, {"measurement": "relative viability", "setting": "NCI-H3122; first compound 0.1265 µM", "result": 0.586}, {"measurement": "relative viability", "setting": "NCI-H3122; first compound 0.4 µM", "result": 0.494}, {"measurement": "relative viability", "setting": "NCI-H3122; first compound 1.265 µM", "result": 0.485}, {"measurement": "relative viability", "setting": "NCI-H3122; first compound 4 µM", "result": 0.276}, {"measurement": "relative viability", "setting": "NCI-H1299; first compound 0.04 µM", "result": 0.931}, {"measurement": "relative viability", "setting": "NCI-H1299; first compound 0.1265 µM", "result": 0.787}, {"measurement": "relative viability", "setting": "NCI-H1299; first compound 0.4 µM", "result": 0.972}, {"measurement": "relative viability", "setting": "NCI-H1299; first compound 1.265 µM", "result": 0.298}, {"measurement": "relative viability", "setting": "NCI-H1299; first compound 4 µM", "result": 0.235}, {"measurement": "relative viability", "setting": "NCI-H1703; first compound 0.04 µM", "result": 0.458}, {"measurement": "relative viability", "setting": "NCI-H1703; first compound 0.4 µM", "result": 0.498}, {"measurement": "relative viability", "setting": "NCI-H1703; first compound 1.265 µM", "result": 0.236}, {"measurement": "relative viability", "setting": "NCI-H1703; first compound 4 µM", "result": 0.234}, {"measurement": "relative viability", "setting": "NCI-H2085; first compound 0.04 µM", "result": 0.781}, {"measurement": "relative viability", "setting": "NCI-H2085; first compound 0.1265 µM", "result": 0.696}, {"measurement": "relative viability", "setting": "NCI-H2085; first compound 0.4 µM", "result": 0.693}, {"measurement": "relative viability", "setting": "NCI-H2085; first compound 1.265 µM", "result": 0.601}, {"measurement": "relative viability", "setting": "NCI-H2085; first compound 4 µM", "result": 0.604}, {"measurement": "relative viability", "setting": "NCI-H1648; first compound 0.04 µM", "result": 0.66}, {"measurement": "relative viability", "setting": "NCI-H1648; first compound 0.1265 µM", "result": 1.03}, {"measurement": "relative viability", "setting": "NCI-H1648; first compound 0.4 µM", "result": 0.462}, {"measurement": "relative viability", "setting": "NCI-H1648; first compound 1.265 µM", "result": 0.485}, {"measurement": "relative viability", "setting": "NCI-H1648; first compound 4 µM", "result": 0.289}, {"measurement": "relative viability", "setting": "HCC-366; first compound 0.04 µM", "result": 0.349}, {"measurement": "relative viability", "setting": "HCC-366; first compound 0.4 µM", "result": 0.197}, {"measurement": "relative viability", "setting": "HCC-366; first compound 1.265 µM", "result": 0.102}, {"measurement": "relative viability", "setting": "HCC-366; first compound 4 µM", "result": 0.0747}, {"measurement": "relative viability", "setting": "IA-LM; first compound 0.04 µM", "result": 0.739}, {"measurement": "relative viability", "setting": "IA-LM; first compound 0.1265 µM", "result": 0.508}, {"measurement": "relative viability", "setting": "IA-LM; first compound 0.4 µM", "result": 0.17}, {"measurement": "relative viability", "setting": "IA-LM; first compound 1.265 µM", "result": 0.115}, {"measurement": "relative viability", "setting": "IA-LM; first compound 4 µM", "result": 0.117}, {"measurement": "relative viability", "setting": "EBC-1; first compound 0.04 µM", "result": 0.74}, {"measurement": "relative viability", "setting": "EBC-1; first compound 0.1265 µM", "result": 0.473}, {"measurement": "relative viability", "setting": "EBC-1; first compound 0.4 µM", "result": 0.312}, {"measurement": "relative viability", "setting": "EBC-1; first compound 1.265 µM", "result": 0.093}, {"measurement": "relative viability", "setting": "EBC-1; first compound 4 µM", "result": 0.113}, {"measurement": "relative viability", "setting": "NCI-H1437; first compound 0.04 µM", "result": 0.595}, {"measurement": "relative viability", "setting": "NCI-H1437; first compound 0.1265 µM", "result": 0.572}, {"measurement": "relative viability", "setting": "NCI-H1437; first compound 0.4 µM", "result": 0.519}, {"measurement": "relative viability", "setting": "NCI-H1437; first compound 1.265 µM", "result": 0.29}, {"measurement": "relative viability", "setting": "NCI-H1437; first compound 4 µM", "result": 0.279}, {"measurement": "relative viability", "setting": "A549; first compound 0.04 µM", "result": 0.303}, {"measurement": "relative viability", "setting": "A549; first compound 0.1265 µM", "result": 0.213}, {"measurement": "relative viability", "setting": "A549; first compound 0.4 µM", "result": 0.255}, {"measurement": "relative viability", "setting": "A549; first compound 1.265 µM", "result": 0.102}, {"measurement": "relative viability", "setting": "A549; first compound 4 µM", "result": 0.045}, {"measurement": "relative viability", "setting": "LXF-289; first compound 0.04 µM", "result": 0.99}, {"measurement": "relative viability", "setting": "LXF-289; first compound 0.1265 µM", "result": 1.06}, {"measurement": "relative viability", "setting": "LXF-289; first compound 0.4 µM", "result": 0.744}, {"measurement": "relative viability", "setting": "LXF-289; first compound 1.265 µM", "result": 0.47}, {"measurement": "relative viability", "setting": "LXF-289; first compound 4 µM", "result": 0.258}, {"measurement": "relative viability", "setting": "HCC-44; first compound 0.04 µM", "result": 0.978}, {"measurement": "relative viability", "setting": "HCC-44; first compound 0.1265 µM", "result": 1.03}, {"measurement": "relative viability", "setting": "HCC-44; first compound 0.4 µM", "result": 0.893}, {"measurement": "relative viability", "setting": "HCC-44; first compound 1.265 µM", "result": 0.851}, {"measurement": "relative viability", "setting": "HCC-44; first compound 4 µM", "result": 0.442}, {"measurement": "relative viability", "setting": "Calu-6; first compound 0.04 µM", "result": 0.536}, {"measurement": "relative viability", "setting": "Calu-6; first compound 0.1265 µM", "result": 0.408}, {"measurement": "relative viability", "setting": "Calu-6; first compound 0.4 µM", "result": 0.511}, {"measurement": "relative viability", "setting": "Calu-6; first compound 1.265 µM", "result": 0.251}, {"measurement": "relative viability", "setting": "Calu-6; first compound 4 µM", "result": 0.249}]}]}
